For assay [1], the target named is Human CB2R (Cannabanoid receptor 2) (Homo sapiens (Human), UniProt P34972). Put plainly: CB-2 in vitro cAMP (HTRF) assay. The assay is classed as cell-based. The note with it: HEK-293 cells stably transfected with human CB2R, 250 nM Forskolin, mean where tested more than once. From the text:
(§1) CB1 and CB2 receptors are Gi-coupled GPCR. Activation of CB1 and CB2 receptors results in a decrease in cAMP production. An inverse agonist of the CB1 or CB2 receptor results in the opposite effect, an increase of cAMP production. The principle of this assay is based on HTRF® technology (Homogeneous Time-Resolved Fluorescence). The method is a competitive immunoassay between native cAMP produced by cells and the cAMP labeled with the fluorophore d2. The tracer binding is quantified by a Mab anti-cAMP labeled with Eu3+TBP-NHS Cryptate (supplied as part of the assay kit). The specific signal (i.e. energy transfer) is inversely proportional to the concentration of cAMP in the standard or sample.
(§2) Biological Example 1: CB-1 and CB-2 In Vitro Assay
(§3) Human CB1R (Cannabanoid receptor 1) was stably transfected in HEK-293 cells (DiscoveRx, cat: 93-0200C1). Human CB2R (Cannabanoid receptor 2) was stably transfected in HEK-293 cells (DiscoveRx, cat: 93-0201C1). Cell cultures were maintained in media: DMEM (Invitrogen Cat#12430-054) supplemented with 10% HI FBS (Invitrogen Cat#16140-071), 1% L-glutamine (Invitrogen Cat#25030-081), 0.2 mg/ml Hygromycin B (Invitrogen Cat#10687-010), 600 μg/mL G418 (Invitrogen Cat#10131-035), and 1×Penn/Strep (Invitrogen 15140-122). After cell expansion, aliquots were cryo-stored in media containing 5% DMSO (Pierce Cat#20684).
(§4) One day prior to experiments media was warmed to 37° C. and the cryo-stored cells were thawed in a 37° C. water bath. The cells were then added to media (10× volume) and the mixture was centrifugated at 1000 RPM for 5 min. The supernate was removed and the cells were re-suspended in media. A sample of the cell suspension was evaluated on a Cedex XS automated cell counter (Innovatis Systems) to determine viable cells/ml. Additional media was added to the cells to achieve a final cell density of 4E5 cells/mL. The cells were then plated into 384 well PDL white solid bottom plates (Greiner, Cat#781945) at 20 μL per well using a Multidrop (Thermo Scientific). Cells were removed from Row P (location of cAMP standards). Two columns of cells were plated into a clear bottom 384 well PDL coated plate (Greiner, Cat#781944) to view confluence the day of the assay. The cell plates were lidded and stored for 15 minutes in a hood, then transferred to an incubator (37° C., 5% CO2, 95% humidity) overnight.
(§5) DMSO was added to all wells of 384 well V bottom polystyrene plate (Greiner, Cat#781280) except to columns 1 and 13, rows O and P and wells M13-M23 and N13-N23. Test compounds (60 μL, 10 mM) were added to Column 1 and 13 (A1 through N1 and A13 through L13). Test compounds were serially diluted 1/3 by transferring and mixing 20 μl sample with 40 μL DMSO.
(§6) DMSO (40 μL) was added to wells of 384 well V bottom polystyrene plate: O2 through O11, M14 through M23, N14 through N23, and O14 through O23. AM630 (also known as [6-iodo-2-methyl-1-[2-(4-morpholinyl)ethyl]-1H-indol-3-yl](4-methoxyphenyl)-methanone, Cayman Chemical, Cat#10006974) (60 μL, 10 mM) was added to O1; and 1-(2,4-dichlorophenyl)-7-[(4-fluorophenyl)methylene]-4,5,6,7-tetrahydro-N-1-piperidinyl-1H-indazole-3-carboxamide (60 μL, 10 mM) was added to N13. The control was serially diluted 1/3 by transferring and mixing 20 μl sample with 40 μL DMSO. This process resulted 11 doses per control, 10 mM to […].
(§7) Cells plated the day prior to the assay in clear bottom plates were viewed on an inverse microscope to ensure confluency in the range of 60-75%. […]

Assay [2] concerns the target Human CB1R (Cannabanoid receptor 1) (Homo sapiens (Human), UniProt P21554). Put plainly: CB-1 in vitro cAMP (HTRF) assay. To be noted: HEK-293 cells stably transfected with human CB1R, 250 nM Forskolin, mean where tested more than once. Type of assay: cell-based.
Source text: as §1, §2, §3, §4, §5, §6, §7
In general terms: In TR-FRET formats the signal depends on donor and acceptor labels being close together.

Structures are written as SMILES.

Chain of Human CB2R (Cannabanoid receptor 2) (P34972 whole entry): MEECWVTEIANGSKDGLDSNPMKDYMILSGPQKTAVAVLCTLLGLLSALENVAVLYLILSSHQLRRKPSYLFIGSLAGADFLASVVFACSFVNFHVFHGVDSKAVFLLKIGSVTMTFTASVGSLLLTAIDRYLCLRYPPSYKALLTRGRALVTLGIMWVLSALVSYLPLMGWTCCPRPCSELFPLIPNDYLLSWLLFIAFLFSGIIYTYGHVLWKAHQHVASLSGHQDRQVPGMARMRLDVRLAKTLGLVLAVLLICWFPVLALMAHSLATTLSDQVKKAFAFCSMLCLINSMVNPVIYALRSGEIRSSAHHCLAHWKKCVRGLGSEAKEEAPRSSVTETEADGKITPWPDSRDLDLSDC
Chain of Human CB1R (Cannabanoid receptor 1) (P21554 whole entry): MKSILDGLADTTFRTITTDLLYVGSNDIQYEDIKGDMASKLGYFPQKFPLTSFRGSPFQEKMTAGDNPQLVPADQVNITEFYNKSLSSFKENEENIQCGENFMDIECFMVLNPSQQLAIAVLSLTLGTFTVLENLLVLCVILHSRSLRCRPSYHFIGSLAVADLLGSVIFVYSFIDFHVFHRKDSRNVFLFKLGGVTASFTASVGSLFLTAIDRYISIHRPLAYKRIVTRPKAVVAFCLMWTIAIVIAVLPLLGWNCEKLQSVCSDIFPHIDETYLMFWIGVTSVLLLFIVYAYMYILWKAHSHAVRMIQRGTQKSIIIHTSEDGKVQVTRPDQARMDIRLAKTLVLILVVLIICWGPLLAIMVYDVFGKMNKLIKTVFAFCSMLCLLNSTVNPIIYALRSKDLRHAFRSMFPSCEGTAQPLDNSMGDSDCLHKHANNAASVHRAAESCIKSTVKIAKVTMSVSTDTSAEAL

Broadly, the EC50 is the concentration needed to bring the measured effect to its halfway point. Lower therefore signals higher potency in that assay. As to `Clc1ccc(C(c2ccc(Cl)cc2)c2ccc3nncc(N4CCC(Nc5ccccc5)CC4)c3c2)cc1` [Compound 29, 1-[6-[bis(4-chlorophenyl)methyl]cinnolin-4-yl]-N-phenylpiperidin-4-amine], the EC50 in assay [1] was over 10 µM; in assay [2] it was 0.099 µM.
Taken in the same sequence, the figures for `FC(F)(F)c1ccc(CNc2cnnc3ccc(C(c4ccc(Cl)cc4)c4ccc(Cl)cc4)cc23)cc1` [Compound 9, 6-(bis(4-chlorophenyl)methyl)-N-(4-(trifluoromethyl)benzyl)cinnolin-4-amine] were over 10 µM and 0.04 µM.
For `O=C(O)c1ccc(CCNc2cnnc3ccc(C(c4ccc(Cl)cc4)c4ccc(Cl)cc4)cc23)cc1` [Compound 37, 4-(2-(6-(bis(4-chlorophenyl)methyl)cinnolin-4-ylamino)ethyl)benzoic acid], the EC50 in assay [1] came out at 2.79 µM; in assay [2] it was 5.4 µM.
Regarding `O=C(O)c1ccc(CCN2CCC(Nc3cnnc4ccc(C(c5ccc(Cl)cc5)c5ccc(Cl)cc5)cc34)CC2)cc1` [Compound 31, 4-(2-(4-(6-(bis(4-chlorophenyl)methyl)cinnolin-4-ylamino)piperidin-1-yl)ethyl)benzoic acid], the EC50 in assay [1] is over 10 µM; in assay [2] it was 6.64 µM.

The record behind these values is patent US9732061B2, “Cinnoline derivatives useful as CB-1 receptor inverse agonists” (Janssen Pharmaceutica NV, priority 2015, dated 2017).
